According to patent EP0297456A2, “Immunosuppressant peptides” (MERRELL DOW PHARMACEUTICALS INC., priority 1987, dated 1989):

Experiments:
[1] = test system: Mixed Lymphocyte Cultures (C57BL/6 and DBA/2 leukocytes); experiment: Inhibition of ³H-thymidine incorporation in mixed lymphocyte cultures; format: cell-based; settings: 120 hour incubation
Description: Inhibition of ³H-Thymidine Incorporation in Mixed Lymphocyte Cultures by Various Peptides
Spleens were aseptically removed and teased apart in RPMI 1640 culture media to obtain single cell suspensions. Erythrocytes were lysed by suspending cells in ACK buffer (0.155 M NH₄Cl, 0.1 mM EDTA, 0.01 M KHCO₃) and the remaining leukocytes washed. C57BL/6 (5 x 10⁵cells) and DBA/2 (5 x 10⁵cells) leukocytes were co-cultured in 0.1 ml RPMI-1640, supplemented with 2% fetal calf serum (FCS), in 96-well microtiter plates. Various concentrations of peptides were added at the initiation of cell culture. Following a 120 hour incubation (37°C), including a pulse with 1 µCi of [³H]TdR in the final 18 hours of culture, the cells were harvested with an automated cell harvester unit onto filter paper strips and placed in ACS scintillation fluid (Amersham, Oakville, Ontario). The amount of [³H]TdR incorporation was then measured in a Beckman LS 7800 liquid scintillation counter.

[2] = test system: Anti-T₃ Stimulated Lymphocytes (Human peripheral blood mononuclear leukocytes MNL); experiment: Inhibition of ³H-thymidine incorporation in anti-T₃ stimulated lymphocytes; format: cell-based; settings: 72 hour incubation
Description: Inhibition of ³H-Thymidine Incorporation in Anti-T₃ Stimulated Lymphocytes by Various Peptides
Human peripheral blood mononuclear leukocytes MNL were isolated by Ficoll-Hypaque density sedimentation. MNL ([…]) were cultured with anti-T₃ (1:10,000 dilution; Ortho Diagnostics) in 0.1 ml DMEM, supplemented with 2% FCS, in 96-well microtiter plates. Following a 72 hour incubation (37°C), including a pulse with 1 µCi of [³H]TdR in the final 18 hours of culture, the cells were harvested and counted as described in Example 6.

Substance: H-Glu-Val-Val-Leu-Gln-Asn-Arg-Arg-Gly-Leu-Leu-OH (H-EVVLQNRRGLL-OH) [Example 4, peptide]
- % Inhibition ([1]; 4 µM BSA-conjugated peptide): 28%
- ³H-Thymidine Incorporation (cpm) ([1]; 4 µM BSA-conjugated peptide): 5751 ± 407 cpm
- % Inhibition ([1]; 8 µM BSA-conjugated peptide): 54%
- ³H-Thymidine Incorporation (cpm) ([1]; 8 µM BSA-conjugated peptide): 3063 ± 372 cpm
- % Inhibition ([2]; 4 µM BSA-conjugated peptide): 5%
- ³H-Thymidine Incorporation (cpm) ([2]; 4 µM BSA-conjugated peptide): 54331 ± 4717 cpm
- % Inhibition ([2]; 8 µM BSA-conjugated peptide): 11%
- ³H-Thymidine Incorporation (cpm) ([2]; 8 µM BSA-conjugated peptide): 39248 ± 5251 cpm

Substance: H-LQNRRGLDLLFLKEGGL-NH2 [Example 3, peptide]
- % Inhibition ([1]; 12 µM BSA-conjugated peptide): 57%
- ³H-Thymidine Incorporation (cpm) ([1]; 12 µM BSA-conjugated peptide): 3417 ± 263 cpm
- % Inhibition ([1]; 24 µM BSA-conjugated peptide): 80%
- ³H-Thymidine Incorporation (cpm) ([1]; 24 µM BSA-conjugated peptide): 1328 ± 421 cpm
- % Inhibition ([2]; 12 µM BSA-conjugated peptide): 45%
- ³H-Thymidine Incorporation (cpm) ([2]; 12 µM BSA-conjugated peptide): 31667.±.4729 cpm
- % Inhibition ([2]; 24 µM BSA-conjugated peptide): 68%
- ³H-Thymidine Incorporation (cpm) ([2]; 24 µM BSA-conjugated peptide): 14027 ± 867 cpm

Substance: H-LRKLRKRLLRDADDL-NH2 [Example 1, peptide]
- % Inhibition ([1]; 9 µM BSA-conjugated peptide): 59%
- ³H-Thymidine Incorporation (cpm) ([1]; 9 µM BSA-conjugated peptide): 3267 ± 457 cpm
- % Inhibition ([1]; 18 µM BSA-conjugated peptide): 73%
- ³H-Thymidine Incorporation (cpm) ([1]; 18 µM BSA-conjugated peptide): 1800 ± 412 cpm
- % Inhibition ([2]; 9 µM BSA-conjugated peptide): 33%
- ³H-Thymidine Incorporation (cpm) ([2]; 9 µM BSA-conjugated peptide): 38521 ± 5349 cpm
- % Inhibition ([2]; 18 µM BSA-conjugated peptide): 50%
- ³H-Thymidine Incorporation (cpm) ([2]; 18 µM BSA-conjugated peptide): 21984 ± 3824 cpm

Substance: H-TRLTRKRGLKLATAL-NH2 [Example 2, peptide]
- % Inhibition ([1]; 14 µM BSA-conjugated peptide): 45%
- ³H-Thymidine Incorporation (cpm) ([1]; 14 µM BSA-conjugated peptide): 4406 ± 848 cpm
- % Inhibition ([1]; 28 µM BSA-conjugated peptide): 67%
- ³H-Thymidine Incorporation (cpm) ([1]; 28 µM BSA-conjugated peptide): 2209 ± 1471 cpm
- % Inhibition ([2]; 14 µM BSA-conjugated peptide): 23%
- ³H-Thymidine Incorporation (cpm) ([2]; 14 µM BSA-conjugated peptide): 44151 ± 2151 cpm
- % Inhibition ([2]; 28 µM BSA-conjugated peptide): 54%
- ³H-Thymidine Incorporation (cpm) ([2]; 28 µM BSA-conjugated peptide): 20041 ± 3331 cpm
